What was measured:
Format in all cases: functional, cell-based
[1] = test system: KB; assay: Cytotoxicity against human KB cells
[2] = Cytotoxicity against human KB/VJ300 cells
[3] = Cytotoxicity against human multidrug-resistant KB/VJ300 cells in presence of 0.12 uM vincristine

SMILES | IC50 [1] [nM] | IC50 [2] [nM] | IC50 [3] [nM]
CC[C@]1(O)C[C@H]2CN(CCc3c([nH]c4ccccc34)[C@@](C(=O)OC)(c3cc4c(cc3OC)N(C=O)[C@H]3[C@@](O)(C(=O)OC)[C@H](OC(C)=O)[C@]5(CC)C=CCN6CC[C@]43[C@@H]65)C2)C1 [VINCRISTINE] | 16.7 | 1340 | –
COC(=O)C1=C[C@@]23CCCN4CC[C@@]5(c6ccccc6N[C@]15CC2)[C@@H]43 [KOPSIJASMININE] | – | – | 38700

From ChEMBL document CHEMBL1140639, “Leuconoxine, kopsinitarine, kopsijasmine, and kopsinone derivatives from Kopsia” (J Nat Prod, 2007)
